What follows are compounds tested against PIK3CA (human) (UniProt P42336) (assay: Inhibition of PIK3CA Kinase Activity).
Chain of PIK3CA (human) (P42336 whole entry, looked up): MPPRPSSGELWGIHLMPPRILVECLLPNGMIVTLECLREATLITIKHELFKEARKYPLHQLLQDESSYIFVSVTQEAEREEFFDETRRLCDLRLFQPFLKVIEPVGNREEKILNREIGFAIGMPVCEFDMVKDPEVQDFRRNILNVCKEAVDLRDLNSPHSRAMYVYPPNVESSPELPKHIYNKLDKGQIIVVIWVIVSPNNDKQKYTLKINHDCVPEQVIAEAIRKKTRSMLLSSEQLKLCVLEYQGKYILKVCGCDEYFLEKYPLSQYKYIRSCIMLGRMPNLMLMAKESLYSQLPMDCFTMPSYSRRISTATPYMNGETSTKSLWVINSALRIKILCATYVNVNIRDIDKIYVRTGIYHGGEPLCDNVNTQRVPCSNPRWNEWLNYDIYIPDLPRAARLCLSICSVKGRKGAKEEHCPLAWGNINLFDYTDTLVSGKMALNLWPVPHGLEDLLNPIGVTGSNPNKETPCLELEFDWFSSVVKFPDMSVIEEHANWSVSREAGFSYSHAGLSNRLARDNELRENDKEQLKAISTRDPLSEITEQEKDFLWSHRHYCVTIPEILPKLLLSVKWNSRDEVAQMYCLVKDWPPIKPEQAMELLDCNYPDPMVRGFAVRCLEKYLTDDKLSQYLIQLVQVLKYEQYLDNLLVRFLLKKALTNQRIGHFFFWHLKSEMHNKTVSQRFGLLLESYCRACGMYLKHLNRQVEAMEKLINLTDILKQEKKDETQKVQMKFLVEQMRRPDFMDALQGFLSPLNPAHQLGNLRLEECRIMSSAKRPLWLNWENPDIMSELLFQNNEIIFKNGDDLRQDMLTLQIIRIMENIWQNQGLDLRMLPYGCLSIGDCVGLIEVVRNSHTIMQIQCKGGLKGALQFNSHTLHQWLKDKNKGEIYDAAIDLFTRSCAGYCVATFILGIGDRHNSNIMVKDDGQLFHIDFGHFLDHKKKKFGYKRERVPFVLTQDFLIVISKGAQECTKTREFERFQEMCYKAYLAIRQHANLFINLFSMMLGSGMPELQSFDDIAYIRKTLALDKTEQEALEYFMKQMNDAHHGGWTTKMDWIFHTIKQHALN

IC50, < 1 µM:
Oc1cccc(-c2nc(N3CCOCC3)nc3[nH]c(-c4cccs4)nc23)c1
COCC(C)n1cnc2c(-c3ccc(N)nc3)nc(N3CCOCC3)nc21 (stereo unspecified)
CC(C)C(C)n1cnc2c(-c3cnc(N)nc3)nc(N3CCOCC3)nc21 (stereo unspecified)
Cc1ccc(C(=O)N2CCC(n3cnc4c(-c5cccc6[nH]ccc56)nc(N5CCOCC5)nc43)CC2)s1
CCc1nc2c(-c3cccc(O)c3)nc(N3CCOCC3)nc2n1C(C)CC (stereo unspecified)
CCC(C)n1c(N2CCCC2)nc2c(-c3cccc(O)c3)nc(N3CCOCC3)nc21 (stereo unspecified)
Cc1cccc(-n2cnc3c(-c4cccc(O)c4)nc(N4CCOCC4)nc32)c1
COc1cc(Cn2cnc3c(-c4cccc(O)c4)nc(N4CCOCC4)nc32)cc(OC)c1
Nc1ncc(-c2nc(N3CCOCC3)nc3c2ncn3Cc2c(F)cccc2F)cn1
Oc1cccc(-c2nc(N3CCOCC3)nc3[nH]c(Br)nc23)c1
CCNc1ccc(Cn2cnc3c(-c4cccc(O)c4)nc(N4CCOCC4)nc32)cc1
O=C(Cn1cnc2c(-c3cccc(O)c3)nc(N3CCOCC3)nc21)Nc1ccccc1
CCC(C#N)n1cnc2c(-c3cccc4[nH]ccc34)nc(N3CCOCC3)nc21 (stereo unspecified)
OCc1cccc(-c2nc(N3CCOCC3)nc3c2ncn3Cc2ccccc2)c1
Oc1cccc(-c2nc(N3CCOCC3)nc3c2ncn3Cc2cccc(F)c2)c1
COCCn1cnc2c(-c3cccc4[nH]ccc34)nc(N3CCOCC3)nc21
CCC(CC)n1cnc2c(-c3ccc(N)nc3)nc(N3CCOCC3)nc21
COc1nc(N)ncc1-c1nc(N2CCOCC2)nc2c1ncn2C(C)C1CC1 (stereo unspecified)
Oc1cccc(-c2nc(N3CCOCC3)nc3c2ncn3CC2CC2)c1
CCC(C)n1cnc2c(-c3cccc(O)c3)nc(N3CCOCC3)nc21 (stereo unspecified)
c1cc(-c2nc(N3CCOCC3)nc3c2ncn3C2CCNCC2)c2cc[nH]c2c1
Nc1ncc(-c2nc(N3CCOCC3)nc3c2ncn3C2Cc3ccccc3C2)cn1
CC(C1CC1)n1cnc2c(-c3cccc4[nH]ccc34)nc(N3CCOCC3)nc21 (stereo unspecified)
CCC(C)n1c(NCCOC)nc2c(-c3cccc(O)c3)nc(N3CCOCC3)nc21 (stereo unspecified)
CCC(C)n1cnc2c(-c3cccc4[nH]ncc34)nc(N3CCOCC3)nc21 (stereo unspecified)
CC(C)(C)CC(=O)N1CCC(n2cnc3c(-c4cccc5[nH]ccc45)nc(N4CCOCC4)nc32)CC1
CCC(C)n1c(Cl)nc2c(-c3cccc(O)c3)nc(N3CCOCC3)nc21 (stereo unspecified)
Oc1cc(F)cc(-c2nc(N3CCOCC3)nc3c2ncn3Cc2ccccc2)c1
CCC(C)n1cnc2c(-c3ccc(N)nc3)nc(N3CCOCC3)nc21 (stereo unspecified)
Nc1ncc(-c2nc(N3CCOCC3)nc3c2ncn3-c2ccccc2)cn1
CS(=O)(=O)Nc1ccc(Cn2cnc3c(-c4cccc(O)c4)nc(N4CCOCC4)nc32)cc1
CC(C1CC1)n1cnc2c(-c3cnc(N)nc3)nc(N3CCOCC3)nc21 (stereo unspecified)
O=C(Cc1cccnc1)N1CCC(n2cnc3c(-c4cccc5[nH]ccc45)nc(N4CCOCC4)nc32)CC1
CCC(C)n1cnc2c(-c3cccc4[nH]ccc34)nc(N3CCOCC3)nc21 (stereo unspecified)
Nc1ccc(Cn2cnc3c(-c4cccc(O)c4)nc(N4CCOCC4)nc32)cc1
Oc1cccc(-c2nc(N3CCOCC3)nc3c2ncn3Cc2c(F)cccc2F)c1

Source: the Kinase Knowledgebase extract (Sharma et al. 2016)
